Test results: publication PMC10714399, “Open Source Antibiotics: Simple Diarylimidazoles Are Potent against Methicillin-Resistant Staphylococcus aureus” (ACS Infectious Diseases, 2023)

Target: T1, kinases of HEK293 cell lysate (TGFBR1) (Homo sapiens, UniProt P36897)
T1 construct: endogenous in cells; host or cells: HEK293 cell lysate
Experiment: MIB-MS kinase competition assay in HEK293 cell lysate
Format: binding
Settings: 1 μM
Experimental: To understand the mammalian toxicity of these diarylimidazole derivatives and to aid in future compound design, we experimentally investigated the potential series’ mechanism of action (MoA). […] This affinity composition assay has proven to be a useful approach to validate kinase inhibitor selectivity. […] Whether the inhibition of TGF-β1 contributes to the cytotoxicity observed remains to be determined.
Following a brief incubation with these compounds, lysates were passed over MIBs (see Supporting Information - Biology), and the captured kinases were identified and quantified by mass spectrometry. Displaced kinases are shown to the left of the center line at the designated doses.
Differential abundance (increase or decrease in MIB binding) was determined for kinases identified. The mass spectrometry proteomics data have been deposited to the ProteomeXchange Consortium via the PRIDE[43] partner repository with the dataset identifier PXD040208.
EphB2 TRKB FGFR1 FGFR4 EphB2 TRKB FGFR1 FGFR4
EphA5 EphB1 ROR2 FLT1 FmS/CSFR EphA5 EphB1 ROR2 FLT1 FmS/CSFR
MUSK ROR1Ret Kit MUSK ROR1Ret Kit
EphB3 DDR2 Mer EphB3 DDR2 Mer
EphA3EphA4 DDR1 Axl Tyro/SkyFLT4 PDGFRα EphA3EphA4 DDR1 AxlTyro/SkyFLT4 PDGFRα
IRR FLT3PDGFRβ IRR FLT3PDGFRβ
EphA6 IGF1R HER2 EphA6 IGF1R HER2
Yes InSR Met EGFR Yes InSR Met EGFR
Branch Color Src EphB4 Ron MLK3 Branch Color Src EphB4 Ron MLK3
Lyn EphA7 ALK TIE2 Lyn EphA7 ALK TIE2 […]

T1 sequence (P36897 34-503): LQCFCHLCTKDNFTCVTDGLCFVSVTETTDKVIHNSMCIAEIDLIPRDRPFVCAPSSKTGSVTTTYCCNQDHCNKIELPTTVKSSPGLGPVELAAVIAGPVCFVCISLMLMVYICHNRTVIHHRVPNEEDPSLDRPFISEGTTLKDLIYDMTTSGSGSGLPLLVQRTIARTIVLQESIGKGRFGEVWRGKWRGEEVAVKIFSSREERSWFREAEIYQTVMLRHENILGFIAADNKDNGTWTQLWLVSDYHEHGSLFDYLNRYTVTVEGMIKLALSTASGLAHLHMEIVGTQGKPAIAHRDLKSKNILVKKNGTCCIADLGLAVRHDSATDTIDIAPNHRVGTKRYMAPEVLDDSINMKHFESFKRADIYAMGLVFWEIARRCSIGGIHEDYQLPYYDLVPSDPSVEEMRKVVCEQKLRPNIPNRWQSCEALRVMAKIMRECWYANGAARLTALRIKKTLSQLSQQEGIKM

c1ccc(-c2nc3n(c2-c2ccc4sccc4c2)CCC3)nc1 [compound 822]
competition of kinases (TGFBR1) off MIBs: selectively competed off MIBs
